Results as given in patent US6573218B1, “Fused-benzene derivatives useful as herbicides” (Ishihara Sangyo Kaisha, Ltd., priority 1998, dated 2003).

What was measured:
Type in all cases: in vivo
[1] = test system: field corn (Zea mays L., var. Dekalb 527, CORN); test: Post-emerge greenhouse crop damage test; conditions: 250 g ai/ha, post-emerge, 14 days after application
Text: (§1) A standard greenhouse herbicide activity screening system was used to evaluate the herbicidal efficacy and crop safety of these test compounds. Seven broadleaf weed species including redroot pigweed (Amaranthus retroflexus, AMARE), velvetleaf (Abutilon theophrasti, ABUTH), sicklepod (Cassia obtusifolia, CASOB), ivyleaf morningglory (Ipomoea hederacea, IPOHE), lambsquarters (Chenopodium album, CHEAL), common ragweed (Ambrosia artemisiifolia L., AMBEL), and cocklebur (Xanthium strumarium, XANST) were used as test species. Four grass weed species including green foxtail (Setaria viridis, SETVI), barnyardgrass (Echinochloa crus-galli, ECHCG), johnsongrass (Sorghum halepense, SORHA), and large crabgrass (Digitaria sanguinalis, DIGSA) were also used. In addition, three crop species, field corn (Zea mays L., var. Dekalb 527, CORN), soybean (Glycine max L., var. Pella 86, SOY), and upland rice (Ory0a sp., var.Tebonnet, RICE) were included.
(§2) All plants were grown in 10 cm square plastic pots which were filled with a sandy loam soil mix. For pre-emerge tests, seeds were planted one day prior to application of the test compounds. For post-emerge tests, seeds were planted 8-21 days prior to the test to allow emergence and good foliage development prior to application of the test substances. At the time of the post-emerge application, plants of all species were usually at the 2-3 leaf stage of development.
(§3) All test compounds were dissolved in acetone and applied to the test units in a volume of 187 l/ha. Test materials were applied at rates ranging from 15 g ai/ha to 1000 g ai/ha using a track sprayer equipped with a TJ8001E even flow flat fan spray nozzle. Plants were arranged on a shelf so that the top of the canopy (post-emerge) or top of the soil surface (pre-emerge) was 40-45 cm below the nozzle. Pressurized air was used to force the test solution through the nozzle as it was mechanically advanced over the top of all test plants/pots. This application simulates a typical commercial field herbicide application.
(§4) In the post-emerge test, a commercial non-ionic surfactant was also included (0.25% v/v) to enhance wetting of the leaf surfaces of target plants. Immediately after application, test units of the pre-emerge applications were watered at the soil surface to incorporate the test materials.
(§5) At 14 days after application of the test materials, phytotoxicity ratings were recorded. A rating scale of 0-100 was used as previously described in Research Methods in Weed Science, 2nd edition, B. Truelove, Ed., Southern Weed Science Society, Auburn University, Auburn, Ala., 1977. Briefly, “0” corresponds to no damage and “100” corresponds to complete death of all plants in the test unit. This scale was used both to determine efficacy against weed species and damage to crop species. Herbicide activity data for various compounds of this invention, which are shown by compound No. in Tables 1-14, are shown in Tables 16 and 17.

[2] = test system: soybean (Glycine max L., var. Pella 86, SOY); test: Post-emerge greenhouse crop damage test; conditions: in vivo
Text: as §1, §2, §3, §4, §5

[3] = test system: upland rice (Ory0a sp., var.Tebonnet, RICE); test: Post-emerge greenhouse crop damage test; conditions: 250 g ai/ha, post-emerge, 14 days after application
Text: as §1, §2, §3, §4, §5

[4] = test system: ivyleaf morningglory (Ipomoea hederacea, IPOHE); test: Post-emerge greenhouse herbicide test; conditions: 250 g ai/ha, 14 days after application
Text: as §1, §2, §3, §4, §5

[5] = test system: johnsongrass (Sorghum halepense, SORHA); test: Post-emerge greenhouse herbicide test; conditions: 250 g ai/ha, 14 days after application
Text: as §1, §2, §3, §4, §5

[6] = test system: redroot pigweed (Amaranthus retroflexus, AMARE); test: Post-emerge greenhouse herbicide test; conditions: 250 g ai/ha, 14 days after application
Text: as §1, §2, §3, §4, §5

[7] = test system: large crabgrass (Digitaria sanguinalis, DIGSA); test: Post-emerge greenhouse herbicide test; conditions: 250 g ai/ha, 14 days after application
Text: as §1, §2, §3, §4, §5

[8] = test system: sicklepod (Cassia obtusifolia, CASOB); test: Post-emerge greenhouse herbicide test; conditions: 250 g ai/ha, 14 days after application
Text: as §1, §2, §3, §4, §5

[9] = test system: barnyardgrass (Echinochloa crus-galli, ECHCG); test: Post-emerge greenhouse herbicide test; conditions: 250 g ai/ha, 14 days after application
Text: as §1, §2, §3, §4, §5

[10] = test system: green foxtail (Setaria viridis, SETVI); test: Post-emerge greenhouse herbicide test; conditions: 250 g ai/ha, 14 days after application
Text: as §1, §2, §3, §4, §5

[11] = test system: lambsquarters (Chenopodium album, CHEAL); test: Post-emerge greenhouse herbicide test; conditions: 250 g ai/ha, 14 days after application
Text: as §1, §2, §3, §4, §5

[12] = test system: velvetleaf (Abutilon theophrasti, ABUTH); test: Post-emerge greenhouse herbicide test; conditions: 250 g ai/ha, 14 days after application
Text: as §1, §2, §3, §4, §5

[13] = test system: ivyleaf morningglory (Ipomoea hederacea, IPOHE); test: Pre-emerge greenhouse herbicide test; conditions: 250 g ai/ha, 14 days after application, scale 0-100 (0 no damage, 100 complete death)
Text: as §1, §2, §3, §4, §5

[14] = test system: redroot pigweed (Amaranthus retroflexus, AMARE); test: Pre-emerge greenhouse herbicide test; conditions: 250 g ai/ha, 14 days after application, scale 0-100 (0 no damage, 100 complete death)
Text: as §1, §2, §3, §4, §5

[15] = test system: large crabgrass (Digitaria sanguinalis, DIGSA); test: Pre-emerge greenhouse herbicide test; conditions: 250 g ai/ha, 14 days after application, scale 0-100 (0 no damage, 100 complete death)
Text: as §1, §2, §3, §4, §5

[16] = test system: sicklepod (Cassia obtusifolia, CASOB); test: Pre-emerge greenhouse herbicide test; conditions: 250 g ai/ha, 14 days after application, scale 0-100 (0 no damage, 100 complete death)
Text: as §1, §2, §3, §4, §5

[17] = test system: barnyardgrass (Echinochloa crus-galli, ECHCG); test: Pre-emerge greenhouse herbicide test; conditions: 250 g ai/ha, 14 days after application, scale 0-100 (0 no damage, 100 complete death)
Text: as §1, §2, §3, §4, §5

[18] = test system: green foxtail (Setaria viridis, SETVI); test: Pre-emerge greenhouse herbicide test; conditions: 250 g ai/ha, 14 days after application, scale 0-100 (0 no damage, 100 complete death)
Text: as §1, §2, §3, §4, §5

[19] = test system: lambsquarters (Chenopodium album, CHEAL); test: Pre-emerge greenhouse herbicide test; conditions: 250 g ai/ha, 14 days after application, scale 0-100 (0 no damage, 100 complete death)
Text: as §1, §2, §3, §4, §5

[20] = test system: velvetleaf (Abutilon theophrasti, ABUTH); test: Pre-emerge greenhouse herbicide test; conditions: 250 g ai/ha, 14 days after application, scale 0-100 (0 no damage, 100 complete death)
Text: as §1, §2, §3, §4, §5

[21] = test system: field corn (Zea mays L., var. Dekalb 527, CORN); test: Pre-emerge greenhouse crop damage test; conditions: pre-emerge, 250 g ai/ha, 14 days after application, scale 0-100 (0 no damage, 100 complete death)
Text: as §1, §2, §3, §4, §5

[22] = test system: soybean (Glycine max L., var. Pella 86, SOY); test: Pre-emerge greenhouse crop damage test; conditions: pre-emerge, 250 g ai/ha, 14 days after application, scale 0-100 (0 no damage, 100 complete death)
Text: as §1, §2, §3, §4, §5

[23] = test system: upland rice (Ory0a sp., var.Tebonnet, RICE); test: Pre-emerge greenhouse crop damage test; conditions: pre-emerge, 250 g ai/ha, 14 days after application, scale 0-100 (0 no damage, 100 complete death)
Text: as §1, §2, §3, §4, §5

**Q.** What does the source list for CCc1nc2c(N3C(=O)C4CCCCN4C3=S)c(F)cc(Cl)c2o1 (single isomer, unassigned) [Compound 7-5, 8-(7-Chloro-2-ethyl-5-fluorobenzoxazol-4-yl)-1,8-diazobicyclo[4,3,0]nonane-7-one-9-thione]?
**A.** Post-emerge crop damage CORN (phytotoxicity rating 0-100) [1]: 20; Post-emerge crop damage SOY (phytotoxicity rating 0-100) [2]: 80; Post-emerge crop damage RICE (phytotoxicity rating 0-100) [3]: 10; Post-emerge Herbicidal Activity IPOHE (phytotoxicity rating 0-100) [4]: 100; Post-emerge Herbicidal Activity SORHA (phytotoxicity rating 0-100) [5]: 0; Post-emerge Herbicidal Activity AMARE (phytotoxicity rating 0-100) [6]: 100; Post-emerge Herbicidal Activity DIGSA (phytotoxicity rating 0-100) [7]: 10; Post-emerge Herbicidal Activity CASOB (phytotoxicity rating 0-100) [8]: 100; Post-emerge Herbicidal Activity ECHCG (phytotoxicity rating 0-100) [9]: 0; Post-emerge Herbicidal Activity SETVI (phytotoxicity rating 0-100) [10]: 60; Post-emerge Herbicidal Activity CHEAL (phytotoxicity rating 0-100) [11]: 100; Post-emerge Herbicidal Activity ABUTH (phytotoxicity rating 0-100) [12]: 100; Pre-emerge Herbicidal Activity IPOHE (phytotoxicity rating) [13]: 0; Pre-emerge Herbicidal Activity AMARE (phytotoxicity rating) [14]: 50; Pre-emerge Herbicidal Activity DIGSA (phytotoxicity rating) [15]: 0; Pre-emerge Herbicidal Activity CASOB (phytotoxicity rating) [16]: 0; Pre-emerge Herbicidal Activity ECHCG (phytotoxicity rating) [17]: 0; Pre-emerge Herbicidal Activity SETVI (phytotoxicity rating) [18]: 0; Pre-emerge Herbicidal Activity CHEAL (phytotoxicity rating) [19]: 60; Pre-emerge Herbicidal Activity ABUTH (phytotoxicity rating) [20]: 30; Pre-emerge Herbicidal Activity CORN (crop damage rating) [21]: 0; Pre-emerge Herbicidal Activity SOY (crop damage rating) [22]: 0; Pre-emerge Herbicidal Activity RICE (crop damage rating) [23]: 0

**Q.** How did the “Post-emerge crop damage CORN (phytotoxicity rating 0-100)” value [1] turn out when CCc1nc2c(N3C(=O)C4CCCCN4C3=S)c(F)cc(Cl)c2o1 (single isomer, unassigned) [Compound 7-6, 8-(7-Chloro-2-ethyl-5-fluorobenzoxazol-4-yl)-1,8-diazobicyclo[4,3,0]nonane-7-one-9-thione] was run?
**A.** 30

**Q.** And the “Post-emerge crop damage SOY (phytotoxicity rating 0-100)” value [2]?
**A.** 50

**Q.** And the “Post-emerge crop damage RICE (phytotoxicity rating 0-100)” value [3]?
**A.** 10

**Q.** And the “Post-emerge Herbicidal Activity IPOHE (phytotoxicity rating 0-100)” value [4]?
**A.** 70

**Q.** What about the “Post-emerge Herbicidal Activity AMARE (phytotoxicity rating 0-100)” value [6] of the same compound?
**A.** 30

**Q.** And the “Post-emerge Herbicidal Activity DIGSA (phytotoxicity rating 0-100)” value [7]?
**A.** 0

**Q.** And the “Post-emerge Herbicidal Activity CASOB (phytotoxicity rating 0-100)” value [8]?
**A.** 30

**Q.** And the “Post-emerge Herbicidal Activity ECHCG (phytotoxicity rating 0-100)” value [9]?
**A.** 0

**Q.** What about the “Post-emerge Herbicidal Activity SETVI (phytotoxicity rating 0-100)” value [10] of the same compound?
**A.** 10

**Q.** And the “Post-emerge Herbicidal Activity CHEAL (phytotoxicity rating 0-100)” value [11]?
**A.** 60

**Q.** What about the “Post-emerge Herbicidal Activity ABUTH (phytotoxicity rating 0-100)” value [12] of the same compound?
**A.** 90
